Measurements from patent US20050182065A1, “Method of stimulating hair growth” (priority 2004, published 2005).

Tests used:
C3H/HeN mice [1] = test: Telogen Conversion Assay; assay type: in vivo; details: for Results: number of days following initiation of treatment when hair growth appeared in 50% of the mice: topical once daily for 5 days, propylene glycol 30%/ethanol 70%
Excerpt: The Telogen Conversion Assay measures the potential of a compound (hereinafter referred to as the “test compound”) to convert mice in the resting stage of the hair growth cycle (“telogen”) to the active stage of the hair growth cycle (“anagen”). This assay takes advantage of the fact that the fur (i.e. hair) of 40-day-old C3H/HeN mice is in the telogen phase. This phase usually continues until about 75 days of age, at which point, anagen naturally occurs in these animals. In this assay, selected areas of 40-day-old mice (approximate) are shaved, contacted with a test agent, or a control, and the difference in the rate of hair growth is measured (i.e. induction of the anagen phase). The first sign of anagen is the darkening of skin color as melanocytes in the follicles start to synthesize melanin, in preparation for the production of pigmented hairs.
Female C3H/HeN mice, 7 weeks old (Charles River Laboratories, Raleigh, N.C.) were used for the study. Fur was clipped from the dorsal region of the mice prior to initiation of the study. Only mice with pink skin, a visual indication of the telogen phase, were selected for inclusion in the study.
Test compounds (from Table A) were dissolved in a vehicle consisting of propylene glycol (30%) and ethanol (70%). A test compound dissolved in vehicle, or a vehicle control (30/70 propylene glycol/ethanol, unless otherwise specified) was applied topically to the clipped dorsal region of the mice in each test group (7-10 mice) in a volume of 20 μl/cm^2. Treatments were applied once daily for 5 days.
The treatment area was observed and graded for signs of hair growth. The hair growth response was quantified by recording, for each animal, the day on which signs of hair growth first appeared over the treated area. The first sign of anagen was the darkening of skin color as melanocytes in the follicles started to synthesize melanin. The response time was measured as the number of days between initiation of treatment and when hair growth was present in 50% of the mice in a given group.
The results are reported as the number of days following initiation of treatment when hair growth appeared in 50% of the mice in a given group.

C3H/HeN mice [2] = test: Telogen Conversion Assay; assay type: in vivo; details: Experiment 8; for Results: number of days following initiation of treatment when hair growth appeared in 50% of the mice: topical once daily for 5 days, solvent polyethylene glycol 30 v/v %, ethanol 30 v/v %, transcutanol 40 v/v %, vehicle 28; for Induction of anagen (conclusion in words): transcutol, ethanol, polypropylene glycol vehicle

CCOC(=O)CCCn1nnnc1-c1ccc2c(c1)[C@H](Oc1ccc(O)nn1)[C@@](C)(O)C(C)(C)O2 [Compound #2]
Results: number of days following initiation of treatment when hair growth appeared in 50% of the mice (C3H/HeN mice [1]; Experiment 3, 0.1 w/v %, terminated early): >35 days | Results: number of days following initiation of treatment when hair growth appeared in 50% of the mice (C3H/HeN mice [1]; Experiment 3, 0.3 w/v %, terminated early): >35 days | Results: number of days following initiation of treatment when hair growth appeared in 50% of the mice (C3H/HeN mice [1]; Experiment 3, 1.0 w/v %, terminated early): >35 days | Results: number of days following initiation of treatment when hair growth appeared in 50% of the mice (C3H/HeN mice [1]; Experiment 3, 2.5 w/v %, terminated early): >35 days

CCOc1c(N[C@@H]2c3cc(S(=O)(=O)c4cccc(O)c4)ccc3OC(C)(C)[C@@]2(C)O)c(=O)c1=O [Compound #3]
Results: number of days following initiation of treatment when hair growth appeared in 50% of the mice (C3H/HeN mice [2]; 0.3 w/v %): >35 days | Results: number of days following initiation of treatment when hair growth appeared in 50% of the mice (C3H/HeN mice [2]; 1.0 w/v %): >35 days | Induction of anagen (conclusion in words) (C3H/HeN mice [2]): inactive

Cn1nc(OC2c3cc(S(=O)(=O)c4ccc(O)cc4)ccc3OC(C)(C)C2(C)O)c2ccccc2c1=O (stereo not shown) [Compound #4]
Results: number of days following initiation of treatment when hair growth appeared in 50% of the mice (C3H/HeN mice [2]; 0.3 w/v %): >35 days | Results: number of days following initiation of treatment when hair growth appeared in 50% of the mice (C3H/HeN mice [2]; 1.0 w/v %): >35 days | Induction of anagen (conclusion in words) (C3H/HeN mice [2]): inactive

CCOC(=O)CCCn1nnnc1-c1ccc2c(c1)[C@@H](Oc1ccnc(O)c1)[C@](C)(O)C(C)(C)O2 [Compound #5]
Results: number of days following initiation of treatment when hair growth appeared in 50% of the mice (C3H/HeN mice [2]; 0.3 w/v %): >35 days | Results: number of days following initiation of treatment when hair growth appeared in 50% of the mice (C3H/HeN mice [2]; 1.0 w/v %): >35 days | Induction of anagen (conclusion in words) (C3H/HeN mice [2]): inactive

Cn1nc(O[C@@H]2c3cc(S(=O)(=O)c4ccc(O)cc4)ccc3OC(C)(C)[C@@]2(C)O)ccc1=O [Compound #6]
Results: number of days following initiation of treatment when hair growth appeared in 50% of the mice (C3H/HeN mice [1]; Experiment 2, 0.3 w/v %, vehicle 25): 18 days | Results: number of days following initiation of treatment when hair growth appeared in 50% of the mice (C3H/HeN mice [1]; Experiment 2, 1.0 w/v %, vehicle 25): 30 days | Results: number of days following initiation of treatment when hair growth appeared in 50% of the mice (C3H/HeN mice [1]; Experiment 5, 0.03 w/v %, vehicle >35): >35 days | Results: number of days following initiation of treatment when hair growth appeared in 50% of the mice (C3H/HeN mice [1]; Experiment 5, 0.1 w/v %, vehicle >35): >35 days | Results: number of days following initiation of treatment when hair growth appeared in 50% of the mice (C3H/HeN mice [1]; Experiment 5, 0.3 w/v %, vehicle >35): 23 days | Induction of anagen (conclusion in words) (C3H/HeN mice [1]; Experiment 5, terminated early): induced anagen at the highest concentration tested (0.3%) | Results: number of days following initiation of treatment when hair growth appeared in 50% of the mice (C3H/HeN mice [1]; Experiment 6, 0.003 w/v %, vehicle >35): >35 days | Results: number of days following initiation of treatment when hair growth appeared in 50% of the mice (C3H/HeN mice [1]; Experiment 6, 0.03 w/v %, vehicle >35): >35 days | Results: number of days following initiation of treatment when hair growth appeared in 50% of the mice (C3H/HeN mice [1]; Experiment 6, 0.3 w/v %, vehicle >35): >35 days | Induction of anagen (conclusion in words) (C3H/HeN mice [1]; Experiment 6, terminated early, up to day 35): no effect was seen | Results: number of days following initiation of treatment when hair growth appeared in 50% of the mice (C3H/HeN mice [1]; Experiment 7, 0.003 w/v %, vehicle 29): 31 days | Results: number of days following initiation of treatment when hair growth appeared in 50% of the mice (C3H/HeN mice [1]; Experiment 7, 0.03 w/v %, vehicle 29): >33 days | Results: number of days following initiation of treatment when hair growth appeared in 50% of the mice (C3H/HeN mice [1]; Experiment 7, 0.3 w/v %, vehicle 29): >33 days | Induction of anagen (conclusion in words) (C3H/HeN mice [1]; Experiment 7, proceeded to completion): did not induce anagen prior to the control group | Results: number of days following initiation of treatment when hair growth appeared in 50% of the mice (C3H/HeN mice [1]; Experiment 15, 0.03 w/v %, vehicle >30): >30 days | Results: number of days following initiation of treatment when hair growth appeared in 50% of the mice (C3H/HeN mice [1]; Experiment 15, 0.3 w/v %, vehicle >30): 14 days | Results: number of days following initiation of treatment when hair growth appeared in 50% of the mice (C3H/HeN mice [1]; Experiment 15, 1.0 w/v %, vehicle >30): >30 days | Induction of anagen (conclusion in words) (C3H/HeN mice [1]; Experiment 15, terminated early): induced anagen when applied at a concentration of 0.3 w/v %
